pIC50: −log10 of the molar value. Active and inactive are the calls of the source. The calls are words filed in the database; no cut-off is given here.
Tests used:
FHC = assay: Cytotoxicity against human FHC cells assessed as reduction in cell viability at 10 to 20 uM incubated for 24 hrs by CCK8 assay; format: cell-based
HCT-116 [1] = assay: Induction of apoptosis in Bax-deficient human HCT116 cells assessed as late apoptotic cells at 5 uM after 24 hrs by Annexin V-FITC/propidium iodide staining based flow cytometry (reference value: 14.67%); format: functional
HCT-116 [2] = assay: Induction of morphological changes in human HCT116 cells assessed as reduction in cell number at 5 to 10 uM after 24 hrs by phase contrast microscopic analysis; format: functional, cell-based
HCT-116 [3] = assay: Cell cycle arrest in human HCT116 cells assessed as accumulation at G2/M phase at 5 uM after 24 hrs by propidium iodide staining based flow cytometry (reference value: 16.3%); format: functional
HCT-116 [4] = assay: Cell cycle arrest in human HCT116 cells assessed as accumulation at S phase at 5 uM after 48 hrs by propidium iodide staining based flow cytometry (reference value: 6.79%); format: functional
HCT-116 [5] = assay: Cytotoxicity against human HCT116 cells assessed as reduction in cell viability at 5 uM incubated for 24 hrs followed by compound washout by CCK8 assay; format: functional, cell-based; conditions: TDE = time-dependent effect
[6] = Solubility of the compound in water; format: physicochemical
HCT-116 [7] = assay: Induction of morphological changes in human HCT116 cells assessed as cell shrinkage at 5 to 10 uM after 24 hrs by phase contrast microscopic analysis; format: functional, cell-based
HCT-116 [8] = assay: Induction of apoptosis in P53-deficient human HCT116 cells assessed as increase in PUMA expression at 2.5 to 20 uM after 24 hrs by immunoblot analysis; format: functional, cell-based
HCT-116 [9] = assay: Induction of apoptosis in Bax-deficient human HCT116 cells assessed as early apoptotic cells at 5 uM after 24 hrs by Annexin V-FITC/propidium iodide staining based flow cytometry (reference value: 8.01%); format: functional
NCI-H1650 = assay: Cytotoxicity against human NCI-H1650 cells after 48 hrs by MTT assay; format: functional, cell-based; conditions: NCI-H1650, 48 h
[10] = molecular target: Cellular tumor antigen p53 (Homo sapiens) (UniProt P04637); assay: Activation of P53 in human HCT116 cells assessed as decrease in PARP expression at 2.5 to 20 uM after 24 hrs by immunoblot analysis; format: cell-based
HCT-116 [11] = assay: Induction of apoptosis in human HCT116 cells assessed as change in P53 expression at 2.5 to 20 uM after 24 hrs by immunoblot analysis; format: functional, cell-based
HCT-116 [12] = assay: Induction of apoptosis in human HCT116 cells assessed as viable cells at 5 uM after 24 hrs by Annexin V-FITC/propidium iodide staining based flow cytometry (reference value: 73.26 to 87.19%); format: functional; conditions: HCT-116, 24 h, read-out: Activity
HCT-116 [13] = assay: Induction of apoptosis in P53-deficient human HCT116 cells assessed as increase in p21 expression at 2.5 to 20 uM after 24 hrs by immunoblot analysis; format: functional, cell-based
[14] = molecular target: Cellular tumor antigen p53 (Homo sapiens) (UniProt P04637); assay: Activation of P53 in human HCT116 cells assessed as increase in Bax expression at 2.5 to 20 uM after 24 hrs by immunoblot analysis; format: cell-based
SK-OV-3 = assay: Cytotoxicity against human SKOV3 cells after 48 hrs by MTT assay; format: functional, cell-based; conditions: SK-OV-3, 48 h
HCT-116 [15] = assay: Induction of apoptosis in P53-deficient human HCT116 cells assessed as decrease in PARP expression at 2.5 to 20 uM after 24 hrs by immunoblot analysis; format: functional, cell-based
DLD-1 [16] = assay: Induction of morphological changes in human DLD1 cells assessed as reduction in cell number at 5 to 10 uM after 24 hrs by phase contrast microscopic analysis; format: functional, cell-based
HCT-116 [17] = assay: Cell cycle arrest in human HCT116 cells assessed as accumulation at S phase at 5 uM after 24 hrs by propidium iodide staining based flow cytometry (reference value: 5.55%); format: functional
HCT-116 [18] = assay: Induction of apoptosis in P53-deficient human HCT116 cells assessed as necrotic cells at 5 uM after 24 hrs by Annexin V-FITC/propidium iodide staining based flow cytometry (reference value: 4.45%); format: functional
HCT-116 [19] = assay: Induction of apoptosis in P53-deficient human HCT116 cells assessed as increase in Bax expression at 2.5 to 20 uM after 24 hrs by immunoblot analysis; format: functional, cell-based
HCT-116 [20] = assay: Induction of apoptosis in human HCT116 cells assessed as necrotic cells at 2.5 to 5 uM after 24 hrs in presence of pan-caspase inhibitor z-VAD-FMK by Annexin V-FITC/propidium iodide staining based flow cytometry (reference value: 1.83%); format: functional
HCT-116 [21] = assay: Induction of apoptosis in human HCT116 cells assessed as viable cells at 2.5 to 5 uM after 24 hrs in presence of pan-caspase inhibitor z-VAD-FMK by Annexin V-FITC/propidium iodide staining based flow cytometry (reference value: 88.08%); format: functional
HCT-116 [22] = assay: Cytotoxicity against human HCT116 cells assessed as reduction in cell viability measured after 24 hrs by CCK8 assay; format: functional, cell-based; conditions: HCT-116, 24 h
HCT-116 [23] = assay: Cytotoxicity against Bax-deficient human HCT116 cells assessed as reduction in cell viability measured after 24 hrs by CCK8 assay; format: functional, cell-based; conditions: HCT-116, 24 h
HCT-116 [24] = assay: Induction of apoptosis in human HCT116 cells assessed as early apoptotic cells at 5 uM after 24 hrs by Annexin V-FITC/propidium iodide staining based flow cytometry (reference value: 3.32 to 5.5%); format: functional
HCT-116 [25] = assay: Induction of apoptosis in human HCT116 cells assessed as increase in cleaved PARP level after 24 hrs in presence of pan-caspase inhibitor z-VAD-FMK by immunoblot analysis; format: functional, cell-based
DLD-1 [26] = assay: Inhibition of colony formation in human DLD1 cells after 24 hrs by crystal violet staining based assay; format: functional, cell-based
BGC-823 = assay: Cytotoxicity against human BGC823 cells after 48 hrs by MTT assay; format: functional, cell-based; conditions: BGC-823, 48 h
HCT-116 [27] = assay: Induction of apoptosis in human HCT116 cells assessed as decrease in pro-caspase3 level at 2.5 to 10 uM after 24 hrs by immunoblot analysis; format: functional, cell-based
HCT-116 [28] = assay: Inhibition of colony formation in human HCT116 cells after 24 hrs by crystal violet staining based assay; format: functional, cell-based
DLD-1 [29] = assay: Cytotoxicity against human DLD1 cells assessed as reduction in cell viability at 5 uM incubated for 24 hrs followed by compound washout by CCK8 assay; format: functional, cell-based; conditions: TDE = time-dependent effect
DLD-1 [30] = assay: Cytotoxicity against human DLD1 cells after 48 hrs by MTT assay; format: functional, cell-based; conditions: DLD-1, 48 h
DLD-1 [31] = assay: Induction of morphological changes in human DLD1 cells assessed as cell shrinkage at 5 to 10 uM after 24 hrs by phase contrast microscopic analysis; format: functional, cell-based
HCT-116 [32] = assay: Induction of apoptosis in human HCT116 cells assessed as early apoptotic cells at 2.5 to 5 uM after 24 hrs in presence of pan-caspase inhibitor z-VAD-FMK by Annexin V-FITC/propidium iodide staining based flow cytometry (reference value: 2.5%); format: functional
HCT-116 [33] = assay: Cytotoxicity against human HCT116 cells after 48 hrs by MTT assay; format: functional, cell-based; conditions: HCT-116, 48 h
RKO = assay: Cytotoxicity against human RKO cells assessed as reduction in cell viability at 5 uM incubated for 24 hrs followed by compound washout by CCK8 assay; format: functional, cell-based; conditions: TDE = time-dependent effect

Chain of Cellular tumor antigen p53 (Homo sapiens) (P04637 whole entry, looked up): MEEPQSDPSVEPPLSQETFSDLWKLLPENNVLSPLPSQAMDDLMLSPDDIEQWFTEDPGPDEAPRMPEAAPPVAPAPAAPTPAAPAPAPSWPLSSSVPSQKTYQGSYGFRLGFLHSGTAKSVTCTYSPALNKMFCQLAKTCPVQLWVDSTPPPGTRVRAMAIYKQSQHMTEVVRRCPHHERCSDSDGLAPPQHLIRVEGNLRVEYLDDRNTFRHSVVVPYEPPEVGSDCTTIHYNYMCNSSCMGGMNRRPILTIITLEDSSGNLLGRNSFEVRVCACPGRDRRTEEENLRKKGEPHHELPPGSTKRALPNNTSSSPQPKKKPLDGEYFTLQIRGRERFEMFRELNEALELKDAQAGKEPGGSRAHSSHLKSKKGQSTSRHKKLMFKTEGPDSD

CN(C)CCNc1ccnc2cc(OCc3ccc(F)cc3)ccc12
Activity (FHC): Toxic
Activity (HCT-116 [1]): 7.29%
Activity (HCT-116 [2]): Active
Activity (HCT-116 [3]): 12.94%
Activity (HCT-116 [4]): 7.61%
Activity (HCT-116 [5]): Tde
solubility [6]: > 10000 µg/mL
Activity (HCT-116 [7]): Active
Activity (HCT-116 [8]): inactive
Activity (HCT-116 [9]): 24.16%
pIC50 (NCI-H1650): 6.11
Activity [10]: Active
Activity (HCT-116 [11]): inactive
viability at 5 µM (HCT-116 [12]): 52.5 to 69.1%
Activity (HCT-116 [13]): inactive
Activity [14]: Active
pIC50 (SK-OV-3): 6.05
Activity (HCT-116 [15]): inactive
Activity (DLD-1 [16]): Active
Activity (HCT-116 [17]): 4.38%
Activity (HCT-116 [18]): 4.45%
Activity (HCT-116 [19]): inactive
Activity (HCT-116 [20]): 2.65%
Activity (HCT-116 [21]): 84.15%
pIC50 (HCT-116 [22]): 4.14
pIC50 (HCT-116 [23]): 4.51
Activity (HCT-116 [24]): 6.13 - 19.42%
Activity (HCT-116 [25]): inactive
inhibition (DLD-1 [26]): Dose-dependent effect
pIC50 (BGC-823): 6.05
Activity (HCT-116 [27]): Active
inhibition (HCT-116 [28]): Dose-dependent effect
Activity (DLD-1 [29]): Tde
pIC50 (DLD-1 [30]): 6.09
Activity (DLD-1 [31]): Active
Activity (HCT-116 [32]): 3.15%
pIC50 (HCT-116 [33]): 6.43
Activity (RKO): Tde
